In US7014858B2, “Use methods of treating acne and telangiectasia” (CollaGenex Pharmaceuticals, Inc., priority 2001, dated 2006):
Where a name gives a salt, the structure may show the parent alone.

Legend:
moderate facial acne = test: Clinical study of doxycycline hyclate 20 mg tablets twice daily in moderate acne: lesion counts; type: in vivo, human; details: 20 mg tablets twice a day
Protocol: Effects of Doxycycline Hyclate 20 mg (Dermastat) Tablets Administered Twice Daily for the Treatment of Moderate Acne
• Multi-center, randomized double-blind, placebo-controlled; • Sixty patients enrolled (30 doxycycline and 30 placebo); • Six month duration of the study. • Patients received medication twice daily, approximately 12 hours apart (placebo and drug are identical in appearance.) Inclusion Criteria: • Healthy post-pubescent males and females (age ≧18) with moderate facial acne: • Comedones 6 to 200; • Inflammatory lesions 10 to 75 (papules and pustules, less than or equal to 5 nodules); • Females tested negative for pregnancy and were non-lactating; • Females maintained appropriate birth control; • Patients signed an Informed Consent Form; • No Accutane treatment for 6 months prior to baseline. Exclusion Criteria: • Use of hormonal contraception 6 months prior to baseline or during study; • Use of topical acne treatments within 6 weeks of baseline or during study; • Use of systemic antibiotics within 6 weeks of baseline or during study; • Use of investigational drugs within 90 days of baseline; • Use of any acne treatments during study. […]

[1] = cited from earlier work
[2] = Plasma antibiotic threshold levels based on steady-state pharmacokinetics
[3] = system: neutrophil chemotaxis induced by bacterial chemotactic factors; details: oral, total daily dose 1000 mg; cited from earlier work
acne = details: sub-antibiotic doses; cited from earlier work

CCO.C[C@H]1c2cccc(O)c2C(O)=C2C(=O)[C@]3(O)C(O)=C(C(N)=O)C(=O)[C@@H](N(C)C)[C@@H]3[C@@H](O)[C@@H]21.C[C@H]1c2cccc(O)c2C(O)=C2C(=O)[C@]3(O)C(O)=C(C(N)=O)C(=O)[C@@H](N(C)C)[C@@H]3[C@@H](O)[C@@H]21.Cl.Cl.O [doxycycline hyclate]
reduction in the number of comedones (in words) (moderate facial acne): significant reduction

CN(C)c1ccc(O)c2c1C[C@H]1C[C@H]3[C@H](N(C)C)C(O)=C(C(N)=O)C(=O)[C@@]3(O)C(O)=C1C2=O [minocycline HCl]
minocycline serum levels (range) ([1]; single dose of two 100 mg tablets, adult humans, over a period of an hour): 0.74 to 4.45 µg/mL
minocycline serum level (average) ([1]; single dose of two 100 mg tablets, adult humans): 2.24 µg/mL

CN(C)[C@@H]1C(O)=C(C(N)=O)C(=O)[C@@]2(O)C(O)=C3C(=O)c4c(O)cccc4[C@@](C)(O)[C@H]3C[C@@H]12 [tetracycline]
plasma antibiotic threshold level [2]: 0.5 µg/mL
neutrophil chemotaxis [3]: inhibition
clinical effect on acne (acne): no clinical effect

CN(C)[C@@H]1C(O)=C(C(N)=O)C(=O)[C@@]2(O)C(O)=C3C(=O)c4c(O)cccc4[C@@](C)(O)[C@H]3C[C@@H]12 [tetracycline HCl]
peak plasma concentration ([1]; 250 mg every six hours over a twenty-four hour period): approximately 3 μg/ml
serum concentration level ([1]; 500 mg every six hours over a twenty-four hour period): 4000 to 5000 ng/mL
